{
  "source": "paper PMC8086025",
  "about": "“A benzopyran with antiarrhythmic activity is an inhibitor of Kir3.1-containing potassium channels” (The Journal of Biological Chemistry, 2021)",
  "key": {"[1]": {"target": "Kir3.1(T143A)/4 (Homo sapiens, UniProt P48544+P48549, T143A)", "sequence (P48544 whole entry)": "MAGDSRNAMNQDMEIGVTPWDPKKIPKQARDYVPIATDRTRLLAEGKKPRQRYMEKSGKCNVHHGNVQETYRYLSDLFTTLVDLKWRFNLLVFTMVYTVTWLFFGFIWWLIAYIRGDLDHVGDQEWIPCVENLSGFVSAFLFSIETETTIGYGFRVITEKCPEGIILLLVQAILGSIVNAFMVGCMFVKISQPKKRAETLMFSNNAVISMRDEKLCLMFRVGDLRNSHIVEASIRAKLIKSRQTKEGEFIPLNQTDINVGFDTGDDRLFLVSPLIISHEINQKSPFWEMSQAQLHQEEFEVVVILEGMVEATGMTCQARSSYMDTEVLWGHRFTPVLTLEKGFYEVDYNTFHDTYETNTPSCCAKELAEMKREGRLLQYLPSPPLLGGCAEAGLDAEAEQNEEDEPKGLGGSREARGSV", "sequence (P48549 whole entry T143A)": "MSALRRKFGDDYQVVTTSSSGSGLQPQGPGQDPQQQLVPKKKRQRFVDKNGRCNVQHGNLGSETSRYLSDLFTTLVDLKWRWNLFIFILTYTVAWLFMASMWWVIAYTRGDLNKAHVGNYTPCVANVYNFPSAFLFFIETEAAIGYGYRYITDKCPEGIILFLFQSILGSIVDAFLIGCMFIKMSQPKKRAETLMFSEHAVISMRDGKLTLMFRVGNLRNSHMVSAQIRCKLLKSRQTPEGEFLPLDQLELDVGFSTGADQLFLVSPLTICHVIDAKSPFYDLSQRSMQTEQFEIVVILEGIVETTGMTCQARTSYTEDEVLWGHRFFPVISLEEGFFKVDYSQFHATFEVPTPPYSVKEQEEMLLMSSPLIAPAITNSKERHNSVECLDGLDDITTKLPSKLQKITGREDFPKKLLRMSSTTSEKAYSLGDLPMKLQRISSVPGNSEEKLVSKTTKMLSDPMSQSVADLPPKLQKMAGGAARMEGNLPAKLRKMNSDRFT", "type": "cell-based", "details": "1 μM, TEVC"}, "[2]": {"target": "T1, Kir6.2/SUR2A (Homo sapiens, UniProt O60706+Q14654)", "T1 construct": "Andrew Tinker, UCL; host or cells: HEK293", "test": "Cloned cardiac ion channel patch clamp, Kir6.2/SUR2A", "type": "cell-based"}, "[3]": {"target": "Kv1.5 (Homo sapiens, UniProt P22460)", "sequence (P22460 whole entry)": "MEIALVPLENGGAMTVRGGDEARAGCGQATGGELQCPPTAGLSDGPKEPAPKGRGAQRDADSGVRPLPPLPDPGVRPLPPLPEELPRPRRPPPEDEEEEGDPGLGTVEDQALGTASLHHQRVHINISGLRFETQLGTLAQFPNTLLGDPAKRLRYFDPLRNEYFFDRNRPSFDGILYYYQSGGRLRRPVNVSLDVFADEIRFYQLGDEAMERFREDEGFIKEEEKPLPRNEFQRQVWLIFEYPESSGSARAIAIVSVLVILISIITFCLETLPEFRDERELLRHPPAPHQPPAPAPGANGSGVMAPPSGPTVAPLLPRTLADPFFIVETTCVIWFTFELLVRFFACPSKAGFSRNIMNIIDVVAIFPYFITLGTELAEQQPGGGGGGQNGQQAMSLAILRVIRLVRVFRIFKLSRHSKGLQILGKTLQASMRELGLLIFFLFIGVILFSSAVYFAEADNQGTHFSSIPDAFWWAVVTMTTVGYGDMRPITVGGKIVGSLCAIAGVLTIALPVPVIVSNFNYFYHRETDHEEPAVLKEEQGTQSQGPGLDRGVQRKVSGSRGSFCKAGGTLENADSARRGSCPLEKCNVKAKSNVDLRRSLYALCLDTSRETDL", "test": "Cloned cardiac ion channel manual patch clamp, Kv1.5", "type": "cell-based", "details": "MPC (manual patch clamp)", "protocol": "For the data shown in Table S6, HEK293 cells expressing Kir3.1/4, Kir6.2/SUR2A (provided by Dr Andrew Tinker), Kir3.4, Kir2.1, and CHO cell lines stably expressing hERG KV1.5, KV4.3, NaV1.5 were maintained in media containing 10% FCS and appropriate selection antibiotic. Cells were grown either in suspension or in T-flasks and routinely passaged. Cells for patch clamping experiments were plated onto glass cover slips prior to use. Cells for automated patch clamping experiments were freshly prepared on each experimental day.\nStandard giga-seal whole-cell patch-clamp techniques were performed at room temperature using glass pipettes (2–5 MΩ). HEKA EPC9/10 amplifiers and Pulse software were used for data acquisition. Series resistance was compensated by >70%. Experimental solutions are given under Supporting information. […]\nIonic current recordings were analyzed using HEKA software. […]\nInhibition of current (or leak-subtracted current) was calculated from steady-state current recorded in the absence (IControl) and presence of test-article (IIntervention). […]\nConcentration-response data were fitted with a sigmoidal function of the form above, where YMin and YMax represent maximum and minimum current inhibition which were constrained to 100 and 0 respectively and x is the Log[DRUG (M)] based on GraphPad Prism analysis. % inhibition was calculated as in Equation 1. […]"}, "[4]": {"target": "T2, Non-steroid nuclear receptors PPARγ (Homo sapiens, UniProt P37231)", "T2 construct": "purchased; host or cells: E. coli", "T2 sequence (P37231 whole entry)": "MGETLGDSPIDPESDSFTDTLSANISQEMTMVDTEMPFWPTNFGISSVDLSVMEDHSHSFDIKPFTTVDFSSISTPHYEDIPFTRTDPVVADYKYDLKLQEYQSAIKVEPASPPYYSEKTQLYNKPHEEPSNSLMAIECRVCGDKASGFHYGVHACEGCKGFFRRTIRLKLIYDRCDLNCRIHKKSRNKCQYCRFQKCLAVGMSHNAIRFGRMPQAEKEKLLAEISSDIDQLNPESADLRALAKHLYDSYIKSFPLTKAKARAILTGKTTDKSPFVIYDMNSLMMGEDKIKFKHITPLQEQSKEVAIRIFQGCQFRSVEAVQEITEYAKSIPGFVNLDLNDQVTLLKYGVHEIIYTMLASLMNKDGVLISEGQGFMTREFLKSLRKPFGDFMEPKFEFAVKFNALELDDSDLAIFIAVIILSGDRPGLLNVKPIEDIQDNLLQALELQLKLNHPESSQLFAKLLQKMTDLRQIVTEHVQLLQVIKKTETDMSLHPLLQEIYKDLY", "test": "Radioligand binding, [3H]rosiglitazone", "details": "read-out: % Specific Binding at 10 µM"}, "[5]": {"target": "T3, Dopamine transporter (Homo sapiens, UniProt Q01959)", "T3 construct": "expressed in transfected cells; host or cells: CHO cells", "T3 sequence (Q01959 whole entry)": "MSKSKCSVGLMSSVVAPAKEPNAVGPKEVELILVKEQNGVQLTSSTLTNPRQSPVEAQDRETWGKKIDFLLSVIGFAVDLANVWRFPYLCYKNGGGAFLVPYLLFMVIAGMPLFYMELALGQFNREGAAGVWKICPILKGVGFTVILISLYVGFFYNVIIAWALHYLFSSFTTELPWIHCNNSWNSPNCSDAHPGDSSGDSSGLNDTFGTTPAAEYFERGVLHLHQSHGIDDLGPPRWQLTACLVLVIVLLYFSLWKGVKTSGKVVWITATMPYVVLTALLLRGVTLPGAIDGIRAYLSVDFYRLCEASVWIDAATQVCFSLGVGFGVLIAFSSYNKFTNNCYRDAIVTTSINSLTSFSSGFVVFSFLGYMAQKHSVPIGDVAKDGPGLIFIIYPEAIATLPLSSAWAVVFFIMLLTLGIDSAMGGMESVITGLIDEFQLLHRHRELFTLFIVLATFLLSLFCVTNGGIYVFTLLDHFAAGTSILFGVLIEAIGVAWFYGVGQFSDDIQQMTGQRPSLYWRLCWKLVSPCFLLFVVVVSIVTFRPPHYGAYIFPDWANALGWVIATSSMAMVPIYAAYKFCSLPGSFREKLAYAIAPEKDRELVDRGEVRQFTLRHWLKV", "test": "Radioligand binding, [3H]BTCP"}, "[6]": {"target": "hERG channel (Homo sapiens, UniProt Q12809)", "sequence (Q12809 whole entry)": "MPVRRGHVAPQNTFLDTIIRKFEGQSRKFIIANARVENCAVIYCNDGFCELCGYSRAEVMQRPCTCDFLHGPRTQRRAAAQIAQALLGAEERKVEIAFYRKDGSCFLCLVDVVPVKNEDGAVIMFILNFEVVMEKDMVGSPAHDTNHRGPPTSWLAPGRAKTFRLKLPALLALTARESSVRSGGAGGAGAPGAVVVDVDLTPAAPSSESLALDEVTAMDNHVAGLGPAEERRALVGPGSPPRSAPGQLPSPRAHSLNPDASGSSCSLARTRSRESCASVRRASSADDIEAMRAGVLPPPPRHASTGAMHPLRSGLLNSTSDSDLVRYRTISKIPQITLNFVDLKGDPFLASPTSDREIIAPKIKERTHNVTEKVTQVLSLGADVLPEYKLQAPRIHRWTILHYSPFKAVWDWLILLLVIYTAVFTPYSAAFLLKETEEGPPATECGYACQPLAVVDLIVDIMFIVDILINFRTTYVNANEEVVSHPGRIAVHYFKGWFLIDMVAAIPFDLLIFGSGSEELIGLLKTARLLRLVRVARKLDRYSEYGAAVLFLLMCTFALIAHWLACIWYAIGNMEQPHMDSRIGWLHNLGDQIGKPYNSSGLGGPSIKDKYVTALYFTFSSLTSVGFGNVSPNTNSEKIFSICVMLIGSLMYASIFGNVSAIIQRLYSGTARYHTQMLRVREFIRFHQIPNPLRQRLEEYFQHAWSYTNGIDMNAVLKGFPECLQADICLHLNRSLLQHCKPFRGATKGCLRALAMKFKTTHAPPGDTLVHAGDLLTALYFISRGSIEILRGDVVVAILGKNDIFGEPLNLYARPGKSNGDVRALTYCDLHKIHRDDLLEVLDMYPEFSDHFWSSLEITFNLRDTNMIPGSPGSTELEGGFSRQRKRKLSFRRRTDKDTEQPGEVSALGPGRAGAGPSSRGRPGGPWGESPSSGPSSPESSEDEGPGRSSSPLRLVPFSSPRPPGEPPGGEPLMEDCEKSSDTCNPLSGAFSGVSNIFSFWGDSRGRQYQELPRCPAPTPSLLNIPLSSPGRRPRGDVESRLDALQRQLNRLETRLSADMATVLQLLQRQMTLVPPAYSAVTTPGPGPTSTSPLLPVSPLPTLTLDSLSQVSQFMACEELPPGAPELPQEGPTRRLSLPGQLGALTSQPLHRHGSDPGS", "test": "hERG currents in Xenopus oocytes, TEVC"}},
  "note": "“Also recorded” adds a separate entry of the source.",
  "data": [
    {"smiles": "Cc1cc(CO)nc2cc3c(cc12)OC(C)(C)[C@H](O)[C@H]3NCCc1ccccc1", "note": "[BP-G1, (3R,4S)-7-(hydroxymethyl)-2,2,9-trimethyl-4-(2-phenylethylamino)-3,4-dihydropyrano[2,3-g]quinolin-3-ol]", "values": [
      {"measurement": "block of Kir3.1(T143A)/4", "setting": "[1]", "result": "no significant reduction in BP-G1 block"},
      {"measurement": "IC50", "setting": "[2]", "result": "> 10000", "unit": "nM"},
      {"measurement": "IC50", "setting": "[3]", "result": 16300, "unit": "nM"},
      {"measurement": "inhibition at 10 µM", "setting": "[4]", "result": "< 50", "unit": "%"},
      {"measurement": "IC50", "setting": "[5]", "result": 1000, "unit": "nM"},
      {"measurement": "Ki", "setting": "[5]", "result": 550, "unit": "nM"},
      {"measurement": "nH, Dopamine transporter (h)", "setting": "[5]", "result": 1},
      {"measurement": "% Specific Binding at 10 µM", "setting": "[5]; 10 µM", "result": 91.2, "unit": "%"},
      {"measurement": "inhibition at 10 µM", "setting": "[5]; 10 µM, read-out: % Specific Binding at 10 µM", "result": 91.2, "unit": "%"},
      {"measurement": "IC50", "setting": "[6]", "result": "> 5000", "unit": "nM"},
      {"measurement": "inhibitory activity on hERG current", "setting": "[6]; up to 5 μM, Xenopus oocytes", "result": "did not show inhibitory activity; also recorded: not inhibited"}
    ]}
  ]
}
